In patent US6030960A, “Method of treating hepatitis virus infections” (priority 1998, dated 2000):
“And” between values parts separate entries of the source, which are not always exact repeats. Equal entries are not always repeated. “Also recorded” adds a separate entry of the source.

Legend:
Format in all cases: cell-based
[1] = Cytotoxicity in HBV persistently infected human HEP G2 cells, neutral red dye uptake (Table 5); settings: human, hep-g2 cells, % of Control Neutral Red Dye Uptake
Excerpt: (§1) Initially, evaluations of the alkyl lipids were done to determine whether the compounds were cytotoxic to the cells at concentrations having anti-HBV activity. The assay methodology is szt forth in Korba and Germ, Antiviral Res., 19, 55-70 (1992), incorporated by reference herein. Briefly, these cell cytotoxicity evaluations were done in 96-well plates seeded with HEP-G2 cell monolayers. The hepatoblastoma cell line HEP-G2 transfected with a plasmid carrying the gene that confers resistance to […] and four 5'-3' tandem copies of the Hepatitis B virus genome was obtained from Dr. George Acs. Proc. Natl. Acad. Sci. USA, 84, 1005-1009 (1987). Serial concentrations of compound were added to the RPMI-1640 growth medium and the growth medium was added to the 96-well plates containing the cell monolayers. The cells were incubated for a total of nine days at 37° C. The compound-containing medium was periodically replaced. Each compound was tested at four serial concentrations in triplicate. After nine days of treatment and incubation, 0.01% neutral red dye (Sigma, Inc.) was added to the overlay medium. Cell cytotoxicity was quantitated by measuring the average A510. Values in Table 1 represent the percentage of average A510 values (±standard deviation) relative to nine non-treated control wells.
(§2) An analysis was periormed to determine the cytotoxicity of the following compounds in human HEP-G2 cells persistently infected with HBV: CP-51, CP-49, CP-9, CP-126, lyso PAF and CP-7. 2'-3'-Dideoxycytidine (ddC) was used as a control in this cytotoxicity analysis. The toxicity analyses were performed in 96-well flat bottomed tissue culture plates following the same procedure set forth in Example 6 above. Each compound was tested at four concentrations, each in triplicate cultures. Uptake of neutral red dye was used to determine the relative level of toxicity. The absorbance of internalized dye at […] (A510) was used for the quantitative analysis.
(§3) Values are presented as a percentage of the average A510 values (± standard deviations) in ninz separate cultures of untreated cells maintained on the same 96-well plate as the test compounds. The percentage of dye uptake in the nine control cultures was 100±1.

[2] = tested on: HEP G2 cells persistently infected with HBV; assay: as above
Excerpt: as §1, §2, §3

[3] = tested on: Hepatitis B virus; assay: Effect on synthesis of antigen markers in persistently infected human HEP G2 cell cultures (Table 7); settings: for activity at 10 µM: Hepatitis B virus, HepG2, 216 h
Method: Cells were treated with compound for nine days at 37° C. The overlay medium was harvested to measure levels of HBsAg, HBeAg and virion DNA. HBsAg and HBeAg were assayed by EIA (Abbott Laboratories). Virion DNA levels were measured as described in section B above.

[4] = tested on: Hepatitis B virus; assay: Anti-hepatitis B virus activity in HEP-G2 cells persistently infected with HBV (Table 2); settings: for activity at 10 µM: Hepatitis B virus, HepG2, 216 h
Method: HEP-G2 cells persistently infected with HBV were treated daily with fresh D-MEM containing 20% FBS and 10 μM compound. After 9 days incubation and treatment, the overlay medium was harvested to assay the quantity of Hepatitis B virus s antigen (HBsAg) and HBeAg by EIA (Abbott Laboratories). The overlay medium was diluted to levels of antigen in the linear range of the assay. Standard curves using dilutions of positive HBsAg and HBeAg controls were included in each assay. Virion DNA was assayed using the method set forth in Korba and Gerin, Antiviral Res., 19, 5,5-70 (1992), incorporated by reference herein. HBV DNA was extracted from the overlay medium containing virus particles and analyzed by a slot-blot hybridization technique using ^32 P-labelled 3.2 Kb Eco R1 HBV DNA fragment by comparisons to HBV standards present on nitrocellulose filters using an AMBIS beta scanner. EC90 values (90% effective concentration, i.e., drug concentration which induces a 90% decrease in the levels of HBV DNA replication intermediates in treated versus control cells) were calculated by linear regression analysis. The relative levels of HBsAg, HBeAg and virion DNA were calulated as a percentage of the average levels obtained from the untreated controls.

[5] = tested on: Hepatitis B virus; assay: Effect of alkyl lipids on HBV replication in HBV persistently infected human HEP G2 cells (Table 6); settings: for Intracellular HBV DNA, Mono (episomal 3.2-3.8 Kb HBV genomes) / Intracellular HBV DNA, RI (replication intermediates): nine days
Method: Cells were treated with a particular compound for nine days at 37° C. Analysis of intracellular HEIV DNA was done 24 hours following the ninth day of treatment. […] The levels of integrated HBV DNA in each cellular DNA preparation were used to calculate the levels of episomal 3.2-3.8 Kb HBV genomes (Mono) and HBV DNA replication intermediates (RI). A zero value indicates an undetectable level of HBV virion DNA. The sensitivity cut-off was 0.1 pg DNA/ml of culture medium.

[6] = Cytotoxicity of alkyl lipids, neutral red dye uptake (Table 1); settings: human, hep-g2 cells
Excerpt: as §1

SMILES: CCCCCCCCCCCCCCCC(=O)NCC(COP(=O)([O-])OCC[N+](C)(C)C)OCC (racemic) [CP-49, rac-3-hexadecanamido-2-ethoxy-1-propylphosphocholine]
- viability at 216 h, 3 µM [1]: 99 ± 3%
- viability at 216 h, 10 µM [1]: 97 ± 2%
- viability at 216 h, 100 µM [1]: 45 ± 4%
- Cell toxicity (greater than 50% depression of dye uptake) ([2]; at concentrations with strong or moderate antiviral activity): did not occur
- % of Control Neutral Red Dye Uptake ([2]; human, hep-g2 cells, 216 h, 100 µM): 29 ± 1 % of Control
- Relative Level of HBeAg ([3]; 10 μM, nine days, 12960 min): 26 % of Untreated Control
- Relative Level of HBsAg ([3]; 10 μM, nine days, 12960 min): 113 % of Untreated Control
- Relative Level of Virion DNA ([3]; 10 μM, nine days, 12960 min): 1 % of Untreated Control
- activity at 10 µM ([3]; read-out: Relative Level of HBeAg, 10 μM, nine days): 33%
- activity at 10 µM ([3]; read-out: Relative Level of HBsAg, 10 μM, nine days): 116%
- activity at 10 µM ([3]; read-out: Relative Level of Virion DNA, 10 μM, nine days): 1%
- effect on HBsAg levels released into the culture medium ([3]; in words): None of the compounds tested
- reduction in HBeAg and virion DNA levels ([3]; in words): caused a reduction; also recorded: most active compounds in suppressing HBeAg and virion DNA levels
- activity against HBV-induced virion DNA and HBeAg syntheses ([4]; 10 μM, in words): potent inhibitory activity
- activity at 10 µM ([4]; read-out: Relative Level of HBeAg): 30%
- activity at 10 µM ([4]; read-out: Relative Level of HBsAg): 115%
- activity at 10 µM ([4]; read-out: Relative Level of Virion DNA): 1%
- HBV Virion DNA ([5]; 0.1 μM, Day 0): 71 pg/ml Culture Medium and 55 pg/ml Culture Medium and 72 pg/ml Culture Medium and 62 pg/ml Culture Medium
- HBV Virion DNA ([5]; 0.1 μM, Day 3): 72 pg/ml Culture Medium and 56 pg/ml Culture Medium and 88 pg/ml Culture Medium and 75 pg/ml Culture Medium
- HBV Virion DNA ([5]; 0.1 μM, Day 6): 62 pg/ml Culture Medium and 69 pg/ml Culture Medium and 55 pg/ml Culture Medium
- HBV Virion DNA ([5]; 0.1 μM, Day 9): 75 pg/ml Culture Medium and 65 pg/ml Culture Medium and 77 pg/ml Culture Medium and 57 pg/ml Culture Medium
- Intracellular HBV DNA, Mono (episomal 3.2-3.8 Kb HBV genomes) ([5]; 0.1 μM): 2.2 pg/μg Cell DNA and 2.3 pg/μg Cell DNA and 2.5 pg/μg Cell DNA and 2.6 pg/μg Cell DNA
- Intracellular HBV DNA, RI (replication intermediates) ([5]; 0.1 μM): 60 pg/μg Cell DNA and 61 pg/μg Cell DNA and 74 pg/μg Cell DNA and 79 pg/μg Cell DNA
- HBV Virion DNA ([5]; 1 μM, Day 0): 56 pg/ml Culture Medium and 51 pg/ml Culture Medium and 66 pg/ml Culture Medium and 79 pg/ml Culture Medium
- HBV Virion DNA ([5]; 1 μM, Day 3): 56 pg/ml Culture Medium and 58 pg/ml Culture Medium and 60 pg/ml Culture Medium and 68 pg/ml Culture Medium
- HBV Virion DNA ([5]; 1 μM, Day 6): 38 pg/ml Culture Medium and 41 pg/ml Culture Medium and 43 pg/ml Culture Medium and 44 pg/ml Culture Medium
- HBV Virion DNA ([5]; 1 μM, Day 9): 10 pg/ml Culture Medium and 13 pg/ml Culture Medium and 11 pg/ml Culture Medium and 18 pg/ml Culture Medium
- Intracellular HBV DNA, Mono (episomal 3.2-3.8 Kb HBV genomes) ([5]; 1 μM): 2.3 pg/μg Cell DNA and 2.4 pg/μg Cell DNA and 2.2 pg/μg Cell DNA and 2.1 pg/μg Cell DNA
- Intracellular HBV DNA, RI (replication intermediates) ([5]; 1 μM): 24 pg/μg Cell DNA and 20 pg/μg Cell DNA and 25 pg/μg Cell DNA and 30 pg/μg Cell DNA
- HBV Virion DNA ([5]; 10 μM, Day 0): 73 pg/ml Culture Medium and 53 pg/ml Culture Medium and 56 pg/ml Culture Medium and 77 pg/ml Culture Medium
- HBV Virion DNA ([5]; 10 μM, Day 3): 49 pg/ml Culture Medium and 55 pg/ml Culture Medium and 57 pg/ml Culture Medium and 50 pg/ml Culture Medium
- HBV Virion DNA ([5]; 10 μM, Day 6): 21 pg/ml Culture Medium and 22 pg/ml Culture Medium and 19 pg/ml Culture Medium and 24 pg/ml Culture Medium
- Intracellular HBV DNA, Mono (episomal 3.2-3.8 Kb HBV genomes) ([5]; 10 μM): 2.6 pg/μg Cell DNA and 2.4 pg/μg Cell DNA and 2.2 pg/μg Cell DNA and 2.7 pg/μg Cell DNA
- Intracellular HBV DNA, RI (replication intermediates) ([5]; 10 μM): 9 pg/μg Cell DNA and 8 pg/μg Cell DNA and 6 pg/μg Cell DNA
- inhibition of HBV virion DNA and intracellular HBV RI DNA levels ([5]; in words, versus ddC): markedly inhibited; also recorded: substantially inhibited
- viability at 216 h, 3 µM ([6]; 3 μM, nine days, read-out: % of Control Neutral Red Dye Uptake): 99 ± 3%
- viability at 216 h, 10 µM ([6]; 10 μM, nine days, read-out: % of Control Neutral Red Dye Uptake): 99 ± 4%
- viability at 216 h, 30 µM ([6]; 30 μM, nine days, read-out: % of Control Neutral Red Dye Uptake): 60 ± 4%
- cytotoxicity at 216 h, 30 µM ([6]; 30 μM, read-out: inhibition of neutral red dye uptake): 40%
- viability at 216 h, 100 µM ([6]; 100 μM, nine days, read-out: % of Control Neutral Red Dye Uptake): 29 ± 1%
